Assay results reported in EP1914235A1, “CHIRAL TETRA-HYDRO BETA-CARBOLINE DERIVATIVES AND APPLICATIONS THEREOF AS ANTIPARASITIC COMPOUNDS” (Université de Lille 2 Droit et Santé, priority 2006, dated 2008).
Converted amounts (≈) assume the structure as drawn.

Experiments:
[1] = test system: P. falciparum 3D7 clone of NF54; experiment: [3H]hypoxanthine drug sensitivity assay, 3D7 clone; format: cell-based; details: Plasmodium falciparum; P. falciparum 3D7, sensitive to all anti-malarials; 48 h, [3H]hypoxanthine uptake; read-out: IC50 3D7(µg/ml)
Procedure: (§1) The cultures are naturally asynchronous (65-75% ring stage) and are maintained in continuous log phase growth in RPMI-1640 medium (as developed by Moore et. al. at Roswell Park Memorial Institute, sold by Sigma Aldrich) supplemented with 5% washed human A+ erythrocytes, 25 mM Hepes, […] NaHCO3, and AlbuMAXII (lipid-rich bovine serum albumin) sold GIBCO, Grand Island, NY (CM). All cultures and assays were conducted at 37°C under an atmosphere of 5% CO2 and 5% O2, with a balance of N2.
(§2) The compounds were further diluted to the appropriate concentration using complete medium RPMI-1640 supplemented with 15nM cold hypoxanthine and AlbuMAXII.
Assays were performed in sterile 96-well microtitre plates; each plate contained 100 µl of parasite culture (0.5% parasitemia, 2.5% hematocrit). Each compound was tested in triplicate and parasite growth compared to control and blank (uninfected erythrocytes) wells. After 24h of incubation at 37°C, […] of [^3H]hypoxanthine was added to each well. Cultures were incubated for a further 24 h before they were harvested onto glass-fiber filter mats. The radioactivity was counted using a Wallac Microbeta® 1450 scintillation counter. […] Percentage inhibition was calculated from comparison to blank and control wells, and IC50 values calculated using Microsoft XLFit ® line fitting software (IDBS, UK).
The preliminary screen used the 3D7 strain. The compounds were tested at 6 concentrations (30, 10, 3, 1, 0.3, and 0.1 µg/ml).
(§3) Both the 3D7 clone and the K1 line were used. The compounds were diluted three-fold over at 12 different concentrations with an appropriate starting concentration based on the preliminary screen. The IC50 was determined by a sigmoidal dose response analysis using Microsoft XLFit™ (IDBS, UK).

P. falciparum K1 strain = experiment: [3H]hypoxanthine drug sensitivity assay, K1 strain; format: cell-based; details: Plasmodium falciparum, K1; read-out: IC50 K1
Procedure: as §1, §2
Assays were performed in sterile 96-well microtitre plates; each plate contained 100 µl of parasite culture (0.5% parasitemia, 2.5% hematocrit). Each compound was tested in triplicate and parasite growth compared to control and blank (uninfected erythrocytes) wells. After 24h of incubation at 37°C, […] of [^3H]hypoxanthine was added to each well. Cultures were incubated for a further 24 h before they were harvested onto glass-fiber filter mats. The radioactivity was counted using a Wallac Microbeta® 1450 scintillation counter. The results were recorded as counts per minute (CPM) per well at each compound concentration, control and blank wells. Percentage inhibition was calculated from comparison to blank and control wells, and IC50 values calculated using Microsoft XLFit ® line fitting software (IDBS, UK).
as §3

[2] = test system: Plasmodium berghei ANKA strain; experiment: In vivo antiparasitic activity in infected mice (4-day dosing, parasitemia on day 5); details: mice infected with P. berghei ANKA; for Activity at the dose 50 mg/kg (%): 50 mg/kg every day for 4 days
Procedure: Female mice (TFW or BALB/c, specific pathogen free), 18-20 g, or
Infection: Blood was taken from donor mice and diluted in RPMI-1640 medium to a parasitemia of 1% (the equivalent of 1x10^7 infected erythrocytes/ml) whilst kept on ice. An inoculum of 0.2 ml was administered to each mouse by the intravenous route. At 2-4 hours post-inoculation dosing commences.
Evaluation endpoint: On day 5 blood smears of all animals (2 slides/mouse) were prepared, fixed with methanol and stained with 10% Giemsa's stain. Parasitemia was determined microscopically by counting 1000 red blood cells under oil immersion at 1000x magnification.
Each of the tested compounds of formula (I) according to the invention was prepared as a stock solution of 5 mg/ml in 10% DMSO/PBS. Insoluble compounds of formula (I) were milled with stainless steel balls for up to 24 hours to reduce particle size. Fresh dilutions were prepared each day. The route of administration of tested compounds is intra peritoneal (i.p.).
Compounds were formulated at 10 mg/kg or at 50 mg/kg in a standard suspension vehicle (0.5% carboxymethylcellulose, 0.5% benzyl alcohol, 0.4% Tween® 80 in 0.9% NaCl) for both oral and i.p. administration.
Dosing was over a 4 day period as above, and evaluation was also as above.

Row | Compound | IC50 [1] [µg/mL] | IC50 (P. falciparum K1 strain) [µg/mL] | Activity at the dose 50 mg/kg (%) [2] [%] | Activity at the dose 10 mg/kg (%) ([2]; 10 mg/kg every day for 4 days)
1 | O=C1[C@H]2Cc3c([nH]c4ccccc34)[C@@H](c3ccc4c(c3)OCO4)N2C(=O)CN1[C@@H]1CCN(Cc2ccccn2)C1 [Compound 27, (6R,12aR)-6-Benzo[1,3]dioxol-5-yl-2-((R)-1-pyridin-2-ylmethyl-pyrrolidin-3-yl)-2,3,6,7,12,12a-hexahydro-pyrazino [1',2':1,6]pyrido[3,4-b]indole-1,4-dione] | 0.08 (≈ 0.149 µM) | 0.2 (≈ 0.373 µM) | 10 | 
2 | Cn1ccnc1CN1CC[C@@H](N2CC(=O)N3[C@H](c4ccc5c(c4)OCO5)c4[nH]c5ccccc5c4C[C@@H]3C2=O)C1 [Compound 28, (6R,12aR)-6-Benzo[1,3]dioxol-5-yl-2-[(R)-1-(1-methyl-1H-imidazol-2-ylmethyl)-pyrrolidin-3-yl]-2,3,6,7,12,12a-hexahydro-pyrazino[1',2':1,6]pyrido[3,4-b]indole-1,4-dione] | 0.09 (≈ 0.167 µM) | 0.07 (≈ 0.13 µM) | 32 | 24
3 | Cn1ccnc1CN1CC[C@@H](N2CC(=O)N3[C@@H](c4ccc5c(c4)OCO5)c4[nH]c5ccccc5c4C[C@@H]3C2=O)C1 [Compound 29, (6S,12aR)-6-Benzo[1,3]dioxol-5-yl-2-[(R)-1-(1-methyl-1H-imidazol-2-ylmethyl)-pyrrolidin-3-yl]-2,3,6,7,12,12a-hexahydro-pyrazino[1',2':1,6]pyrido[3,4-b]indole-1,4-dione] | 0.5 (≈ 0.928 µM) | 0.09 (≈ 0.167 µM) | 19 | 
4 | O=C1[C@H]2Cc3c([nH]c4ccccc34)[C@@H](c3ccc(Cl)nc3)N2C(=O)CN1[C@@H]1CCN(Cc2ccccc2)C1 [Compound 84c, (6R,12aR)-2-((R)-1-Benzyl-pyrrolidin-3-yl)-6-(6-chloro-pyridin-3-yl)-2,3,6,7,12,12a-hexahydro-pyrazino[1',2':1,6] pyrido[3,4-b]indole-1,4-dione] | 0.07 (≈ 0.133 µM) | 0.11 (≈ 0.209 µM) | 9.1 | 
